Measured values from patent US20090030066A1, “SMALL MOLECULES FOR THE PROTECTION OF PANCREATIC CELLS” (priority 2007, published 2009).

Legend:
STZ-treated mice [1] = test: Blood glucose and body weight in STZ-treated mice, first experiment (not fasted); assay type: in vivo; details: for Body weight: STZ 210 mg/kg + compound 4.5 mg/kg i.p., unit not given, in g; for protection of islet β-cells: STZ-induced type 1 diabetes model; for effect on STZ-induced rise of blood glucose: STZ-treated animals, 4.5 mg/kg i.p.; for effect on STZ-induced body weight loss: STZ-treated mice, to day 10
Protocol: Male C57BL/6 mice (12 weeks old) were housed in a specific pathogen-free facility with a 12-h light/dark cycle and given free access to food and water. Animals weighing between 28-31 g were selected for the experiments. In each group, at the start of experiment the body weight among individual animals differed by less than 1-g.
One group of mice received no treatment over the entire experiment. A second group received only 4.5 mg per kg of CCompound1 on days −2, −1, 0, +1, +2, +3, +4, +5, +6 and +7. A third/fourth/fifth/sixth group of animals were treated i.p. with 210 mg/kg of STZ on day 0. The fourth, fifth, and sixth group of animals also received 4.5 mg per kg each of CCompound1 (CC1; 4th group) or CCompound3 (CC3; 5th group), or CCompound19 (CC19; 6th group) on days −2, −1, 0, +1, +2, +3, +4, +5, +6 and +7 (with STZ treatment given on day 0). Each group consisted of 7 animals. Body weight was measured regularly.
CC compounds were dissolved in physiological saline while STZ was dissolved in 100 mM sodium citrate (pH 4.5). All compounds were injected intraperitoneally in 0.5 ml volume. Control animals were injected physiological saline (0.5 ml) on the same days when other groups were treated with CC compounds.
Blood samples were taken from the eye (canthus) of the animals on days −1, 0, +1, +2, +3, +7 and +10, and glucose concentrations in whole blood samples were immediately measured with the commercially available fast Glucose C test. The animals were not fasted prior to taking the blood samples. The results are expressed as the mean values from 7 animals ±std. dev. (S.D.).

[2] = test system: AR42J rat pancreatic tumor cell line; test: MTT proliferation of AR42J pancreatic tumor cells; assay type: cell-based; details: 96 h
Text: In the Examples below, an MTT assay was used to determine the relative number of viable cells after treatments. This calorimetric assay is based on the ability of living cells, but not dead cells, to reduce 3-(4,5-dimethyl thiazol-2-yl)-2,5-diphenyltetrazolium bromide. [Carmichael, J, De Graff, W. G., Gazdar, A. F., Minna, J. D. and Mitchell, J. B. (1987) Evaluation of tetrazolium-based semiautomated calorimetric assay: Assessment of chemosensitivity testing. Cancer Res. 47, 936-942], which is hereby incorporated by reference. For this assay, cells were plated in 96-well plates, and the MTT assay was performed as described in the above article both in untreated and treated cell cultures. The MTT assay also was performed at the time when the treatment was started to allow for assessment of the proliferation and survival rates in the control and treated cell cultures. In the MTT assay, higher values mean proportionally higher numbers of viable cells.
The AR42J rat pancreatic tumor cell line, purchased from ATTC (catalog number: CRL-1492), was propagated in modified Ham's medium containing 20% fetal bovine serum. These cells, derived from a transplantable tumor of the exocrine pancreas, contain significant amounts of amylase and other exocrine enzymes and they produce tumors in athymic mice.
For the experiment, cells were split in 96-well plates at 15,000 cells per well. After 24 hours, the medium was changed for fresh medium (0 hour) and various concentrations of CCompound1 and CCompound3 were added and incubations continued for 96 hours. The MTT assay was used to determine the relative number of viable cells. From the data shown in TABLE 13, in the 2-25 μM concentration range CC compounds had only inhibitory effects on the proliferation of pancreatic cancer cells.

STZ-treated mice [3] = test: STZ-treated mice, second experiment: body weight to day 80 and survival; assay type: in vivo; details: STZ + compound
Text: In a second similar experiment performed with 6 mice in each group, the changes in body weight were followed for up to 80 days (when the last STZ-treated mouse died), and survival was followed for up to 100 days.
For the body weight (on the 80th day) and survival the following values were obtained: Untreated (6 survivors), 37.7 g; STZ-treated (one last survivor died on day 80, others survived for 22, 25, 27, 60, 75 days), 26.0 g; CCompound1-treated (6 survivors), 36.0 g; STZ+CCompound1 treated (6 survivors), 33.4 g; STZ+CCompound3-treated (5 survivors; one mouse died on day 78), 32.5 g. At the start of the experiment (day 0), the average body weight ranged from 28.6 to 29.8 g. Accordingly, by day 80, STZ-treated animals that were also treated with CCompound1 and CCompound3 gained about 50% of the weight gained by the untreated animals.

[4] = STZ 210 mg/kg i.p. day 0 + compound 4.5 mg/kg i.p. days −2 to +7, day 0
[5] = STZ 210 mg/kg i.p. day 0 + compound 4.5 mg/kg i.p. days −2 to +7, day +1
[6] = STZ 210 mg/kg i.p. day 0 + compound 4.5 mg/kg i.p. days −2 to +7, day +2
[7] = STZ 210 mg/kg i.p. day 0 + compound 4.5 mg/kg i.p. days −2 to +7, day +3
[8] = STZ 210 mg/kg i.p. day 0 + compound 4.5 mg/kg i.p. days −2 to +7, day +7
[9] = STZ 210 mg/kg i.p. day 0 + compound 4.5 mg/kg i.p. days −2 to +7, day +10
[10] = STZ 210 mg/kg i.p. day 0 + compound 4.5 mg/kg i.p. days −2 to +7, day −1

SMILES | Body weight (STZ-treated mice [1]; day 0) | Body weight (STZ-treated mice [1]; day +1) | Body weight (STZ-treated mice [1]; day +2) | Body weight (STZ-treated mice [1]; day +3) | Body weight (STZ-treated mice [1]; day +7) | Body weight (STZ-treated mice [1]; day +10) | Blood glucose (STZ-treated mice [1]; [4]) | Blood glucose (STZ-treated mice [1]; [5]) | Blood glucose (STZ-treated mice [1]; [6]) | Blood glucose (STZ-treated mice [1]; [7]) | Blood glucose (STZ-treated mice [1]; [8]) | Blood glucose (STZ-treated mice [1]; [9]) | Blood glucose (STZ-treated mice [1]; [10]) | protection of islet β-cells (STZ-treated mice [1]) | effect on STZ-induced rise of blood glucose (STZ-treated mice [1]) | effect on STZ-induced body weight loss (STZ-treated mice [1]) | other results
CC[N+](C)(CC)CCOCc1ccc2sc3ccccc3c(=O)c2c1 [CCcompound3] | 28.0 ± 0.9 | 28.2 ± 0.8 | 25.3 ± 0.5 | 25.3 ± 0.6 | 25.2 ± 0.9 | 24.7 ± 1.3 | 4.7 ± 0.7 mM | 6.5 ± 0.7 mM | 10.7 ± 1.1 mM | 13.0 ± 1.1 mM | 14.2 ± 1.3 mM | 13.6 ± 1.6 mM | 4.6 ± 0.5 mM | clearly protected β-cell function | prevent drastic increase in blood glucose level | reduced the effect of STZ on body weight | A540 (MTT, relative number of viable cells) ([2]; 2 μM): 1.17; A540 (MTT, relative number of viable cells) ([2]; 5 μM): 0.868 ± 0.093; A540 (MTT, relative number of viable cells) ([2]; 10 μM): 0.745 ± 0.052; A540 (MTT, relative number of viable cells) ([2]; 25 μM): 0.675 ± 0.064; weight gained by day 80 relative to the weight gained by the untreated animals (STZ-treated mice [3]): about 50%; body weight on the 80th day (STZ-treated mice [3]; 6 mice per group): 32.5 g; survivors (STZ-treated mice [3]; 80th day, 6 mice per group): 5
C[N+](C)(C)CCC=C1c2ccccc2Sc2ccccc21.[I-] [CCcompound19, N,N,N-trimethyl-3-(9H-thioxanthen-9-ylidene)-propane-1-aminium iodide] | 28.1 ± 0.5 | 28.5 ± 1.2 | 26.4 ± 0.8 | 26.8 ± 1.0 | 26.2 ± 0.9 | 26.4 ± 1.7 | 4.8 ± 0.3 mM | 5.9 ± 0.6 mM | 8.7 ± 0.8 mM | 10.5 ± 0.9 mM | 12.5 ± 1.1 mM | 11.9 ± 1.1 mM | 4.3 ± 0.3 mM | protected islet β-cells | prevent drastic increase in blood glucose level | reduced the effect of STZ on body weight | 
